Assay results: PMC9795070, “Customized chitooligosaccharide production—controlling their length via engineering of rhizobial chitin synthases and the choice of expression system” (Frontiers in Bioengineering and Biotechnology, 2022)

Target: T1, NodC_GRH2 (Rhizobium sp. GRH2, UniProt A0A0N7ARR3)
T1 construct: gene nodC; wild-type nodC in shuttle vector pEKEx3, expressed in E. coli BL21 (DE3) and C. glutamicum DSM20300; not purified, membrane-embedded
T1 sequence (A0A0N7ARR3 1-443): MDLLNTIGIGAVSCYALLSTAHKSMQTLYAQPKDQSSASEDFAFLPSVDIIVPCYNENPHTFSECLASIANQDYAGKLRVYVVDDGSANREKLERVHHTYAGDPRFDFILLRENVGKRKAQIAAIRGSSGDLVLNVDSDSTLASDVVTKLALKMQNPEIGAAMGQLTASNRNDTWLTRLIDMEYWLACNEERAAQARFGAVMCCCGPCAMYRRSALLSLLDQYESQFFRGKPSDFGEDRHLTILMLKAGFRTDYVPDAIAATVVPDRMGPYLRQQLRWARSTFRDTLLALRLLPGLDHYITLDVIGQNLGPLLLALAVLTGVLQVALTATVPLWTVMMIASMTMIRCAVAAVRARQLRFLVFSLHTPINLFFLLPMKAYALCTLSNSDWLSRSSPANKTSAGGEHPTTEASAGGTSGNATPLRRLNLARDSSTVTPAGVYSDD
Assay: whole-cell production, HILIC-ESI-MS of lysed culture
Type: cell-based
Settings: 0.1 mM IPTG, donor UDP-GlcNAc from the host

Compound | whole-cell production, HILIC-ESI-MS of lysed culture (E. coli BL21 (DE3), 30 °C) | whole-cell production, HILIC-ESI-MS of lysed culture (C. glutamicum DSM20300, 30 °C)
CC(=O)N[C@H]1[C@H](O[C@H]2[C@H](O)[C@@H](NC(C)=O)[C@H](O[C@H]3[C@H](O)[C@@H](NC(C)=O)C(O)O[C@@H]3CO)O[C@@H]2CO)O[C@H](CO)[C@@H](O[C@@H]2O[C@H](CO)[C@@H](O[C@@H]3O[C@H](CO)[C@@H](O)[C@H](O)[C@H]3NC(C)=O)[C@H](O)[C@H]2NC(C)=O)[C@@H]1O (some centres unmarked) [A5, pentamer] | the main product for wildtype NodC_GRH2 throughout the whole cultivation is A5 | 
CC(=O)N[C@H]1[C@H](O[C@H]2[C@H](O)[C@@H](NC(C)=O)[C@H](O[C@H]3[C@H](O)[C@@H](NC(C)=O)C(O)O[C@@H]3CO)O[C@@H]2CO)O[C@H](CO)[C@@H](O[C@@H]2O[C@H](CO)[C@@H](O[C@@H]3O[C@H](CO)[C@@H](O[C@@H]4O[C@H](CO)[C@@H](O)[C@H](O)[C@H]4NC(C)=O)[C@H](O)[C@H]3NC(C)=O)[C@H](O)[C@H]2NC(C)=O)[C@@H]1O (some centres unmarked) [A6, hexamer] |  | C. glutamicum expressing the same wildtype enzyme produces predominantly A6
